# Patent US12577206B2 (BRISTOL-MYERS SQUIBB COMPANY, priority 2020, dated 2026)
# Legend:
# human FPR2 = molecular target: T1, human FPR2 (Homo sapiens, UniProt P25090); assay: FPR2 cyclic adenosine monophosphate (cAMP) assay; type: cell-based; details: CHO cells overexpressing human FPR2; forskolin 5 μM; inhibition of cAMP production; HTRF; read-out: hFPR2 cAMP2 EC50
# T1 sequence (P25090 1-351): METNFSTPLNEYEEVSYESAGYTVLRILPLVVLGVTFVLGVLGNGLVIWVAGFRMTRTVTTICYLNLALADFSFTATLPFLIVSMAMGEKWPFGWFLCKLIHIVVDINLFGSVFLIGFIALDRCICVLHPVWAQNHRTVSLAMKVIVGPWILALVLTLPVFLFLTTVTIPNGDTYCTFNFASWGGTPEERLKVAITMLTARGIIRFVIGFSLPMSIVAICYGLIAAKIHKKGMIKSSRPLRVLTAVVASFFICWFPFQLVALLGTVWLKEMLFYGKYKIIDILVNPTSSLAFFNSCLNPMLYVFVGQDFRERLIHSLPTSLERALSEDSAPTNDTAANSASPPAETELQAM
# Procedure, shortened: (§1)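 CHO cells overexpressing human FPR1 (4,000/well) or FPR2 (2,000/well) were incubated 30 min at room temperature with compound (0.020 nM to 100 μM, 1% DMSO), IBMX 200 μM, and forskolin at 10 μM (FPR1) or 5 μM (FPR2), all final. HTRF cAMP read-out; inhibition fitted by 4-parameter logistic equation.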
# human FPR1 = molecular target: T2, human FPR1 (Homo sapiens, UniProt P21462); assay: FPR1 cyclic adenosine monophosphate (cAMP) assay; type: cell-based; details: CHO cells overexpressing human FPR1; forskolin 10 μM; inhibition of cAMP production; HTRF; read-out: hFPR1 cAMP2 EC50
# T2 sequence (P21462 1-350): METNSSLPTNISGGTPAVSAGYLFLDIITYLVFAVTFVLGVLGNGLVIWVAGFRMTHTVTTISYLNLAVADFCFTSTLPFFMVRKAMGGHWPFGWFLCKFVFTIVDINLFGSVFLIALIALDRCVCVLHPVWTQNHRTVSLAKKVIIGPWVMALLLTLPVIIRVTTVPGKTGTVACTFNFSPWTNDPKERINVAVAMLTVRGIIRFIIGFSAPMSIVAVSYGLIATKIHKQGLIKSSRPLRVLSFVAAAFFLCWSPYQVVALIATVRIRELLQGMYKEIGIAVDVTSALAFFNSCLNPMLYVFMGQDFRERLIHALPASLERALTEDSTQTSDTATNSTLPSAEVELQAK
# Procedure, shortened: as §1
Compound,EC50 (human FPR2),EC50 (human FPR1)
"Cn1c(-c2ccc(OC(F)F)cc2)c(NC(=O)c2ccc(OC(F)F)cc2)c(=O)n1-c1nc(Cl)ccc1C(F)(F)F [Example 317, N-{2-[6-chloro-3-(trifluoromethyl)pyridin-2-yl]-5-[4-(difluoromethoxy)phenyl]-1-methyl-3-oxo-2,3-dihydro-1H-pyrazol-4-yl}-4-(difluoromethoxy)benzamide]",14 nM,1800 nM
"COc1cc(F)c(-c2c(NC(=O)c3ccc(OC(F)F)cc3)c(=O)n(-c3nc(S(C)(=O)=O)ccc3C(F)(F)F)n2C)c(F)c1 [Example 318, N-[5-(2,6-difluoro-4-methoxyphenyl)-2-[6-methanesulfonyl-3-(trifluoromethyl)pyridin-2-yl]-1-methyl-3-oxo-2,3-dihydro-1H-pyrazol-4-yl]-4-(difluoromethoxy)benzamide]",7 nM,> 10000 nM
COc1cc(F)c(-c2c(NC(=O)c3ccc(OC(F)F)cc3)c(=O)n(-c3nc(C4CCN(S(C)(=O)=O)CC4)ccc3C(F)(F)F)n2C)c(F)c1 [Example 319],2 nM,> 10000 nM
"COc1cc(F)c(-c2c(NC(=O)c3ccc(OC(F)F)cc3)c(=O)n(-c3cc(OC4CCOC4)cc(C)n3)n2C)c(F)c1 (stereo not drawn) [Example 320, N-(5-(2,6-Difluoro-4-methoxyphenyl)-1-methyl-2-(6-methyl-4-((tetrahydrofuran-3-yl)oxy)pyridin-2-yl)-3-oxo-2,3-dihydro-1H-pyrazol-4-yl)-4-(difluoromethoxy)benzamide]",2 nM,990 nM
"COc1cc(F)c(-c2c(NC(=O)c3ccc(OC(F)F)cc3)c(=O)n(-c3cc(OC4CCOC4)cc(C)n3)n2C)c(F)c1 (stereo not drawn) [Example 321, N-(5-(2,6-Difluoro-4-methoxyphenyl)-1-methyl-2-(6-methyl-4-((tetrahydrofuran-3-yl)oxy)pyridin-2-yl)-3-oxo-2,3-dihydro-1H-pyrazol-4-yl)-4-(difluoromethoxy)benzamide]",4 nM,390 nM
COc1cc(OCC(C)(C)O)nc(-n2c(=O)c(NC(=O)c3ccc(OC(F)F)cc3)c(-c3c(F)cc(OC)cc3F)n2C)c1 [Example 322],7 nM,> 10000 nM
"COc1cc(F)c(-c2c(NC(=O)c3ccc(OC(F)F)cc3)c(=O)n(-c3cc(C4CCNCC4)cc(C)n3)n2C)c(F)c1 [Example 323, N-(5-(2,6-Difluoro-4-methoxyphenyl)-1-methyl-2-(6-methyl-4-(piperidin-4-yl)pyridin-2-yl)-3-oxo-2,3-dihydro-1H-pyrazol-4-yl)-4-(difluoromethoxy)benzamide]",14 nM,> 10000 nM
"COc1cc(F)c(-c2c(NC(=O)c3ccc(OC(F)F)cc3)c(=O)n(-c3cc(C4CCN(C)CC4)cc(C)n3)n2C)c(F)c1 [Example 324, N-(5-(2,6-Difluoro-4-methoxyphenyl)-1-methyl-2-(6-methyl-4-(1-methylpiperidin-4-yl)pyridin-2-yl)-3-oxo-2,3-dihydro-1H-pyrazol-4-yl)-4-(difluoromethoxy)benzamide]",5 nM,> 10000 nM
"COc1cc(OCC(C)(CO)CO)nc(-n2c(=O)c(NC(=O)c3ccc(OC(F)F)cc3)c(-c3c(F)cc(OC)cc3F)n2C)c1 [Example 325, N-(5-(2,6-Difluoro-4-methoxyphenyl)-2-(6-(3-hydroxy-2-(hydroxymethyl)-2-methylpropoxy)-4-methoxypyridin-2-yl)-1-methyl-3-oxo-2,3-dihydro-1H-pyrazol-4-yl)-4-(difluoromethoxy)benzamide]",3 nM,> 10000 nM
"COc1cc(O)nc(-n2c(=O)c(NC(=O)c3ccc(OC(F)F)cc3)c(-c3c(F)cc(OC)cc3F)n2C)c1 [Example 326, N-(5-(2,6-Difluoro-4-methoxyphenyl)-2-(6-hydroxy-4-methoxypyridin-2-yl)-1-methyl-3-oxo-2,3-dihydro-1H-pyrazol-4-yl)-4-(difluoromethoxy)benzamide]",58 nM,1600 nM
"COc1cc(F)c(-c2c(NC(=O)c3ccc(OC(F)F)cc3)c(=O)n(-c3cc(OCC4(C)COC4)cc(C)n3)n2C)c(F)c1 [Example 327, N-(5-(2,6-Difluoro-4-methoxyphenyl)-1-methyl-2-(6-methyl-4-((3-methyloxetan-3-yl)methoxy)pyridin-2-yl)-3-oxo-2,3-dihydro-1H-pyrazol-4-yl)-4-(difluoromethoxy)benzamide]",23 nM,59 nM
"COc1cc(F)c(-c2c(NC(=O)c3ccc(OC(F)F)cc3)c(=O)n(-c3cc(C#N)cc(C)n3)n2C)c(F)c1 [Example 328, N-(2-(4-Cyano-6-methylpyridin-2-yl)-5-(2,6-difluoro-4-methoxyphenyl)-1-methyl-3-oxo-2,3-dihydro-1H-pyrazol-4-yl)-4-(difluoromethoxy)benzamide]",15 nM,1600 nM
"COc1cc(OCCCO)nc(-n2c(=O)c(NC(=O)c3ccc(OC(F)F)cc3)c(-c3c(F)cc(OC)cc3F)n2C)c1 [Example 329, N-(5-(2,6-Difluoro-4-methoxyphenyl)-2-(6-(3-hydroxypropoxy)-4-methoxypyridin-2-yl)-1-methyl-3-oxo-2,3-dihydro-1H-pyrazol-4-yl)-4-(difluoromethoxy)benzamide]",4 nM,> 10000 nM
"COc1cc(F)c(-c2c(NC(=O)c3ccc(OC(F)F)cc3)c(=O)n(-c3cccnc3OC)n2C)c(F)c1 [Example 330, N-(5-(2,6-Difluoro-4-methoxyphenyl)-2-(2-methoxypyridin-3-yl)-1-methyl-3-oxo-2,3-dihydro-1H-pyrazol-4-yl)-4-(difluoromethoxy)benzamide]",6 nM,> 10000 nM
"COc1cc(F)c(-c2c(NC(=O)c3ccc(OC(F)F)cc3)c(=O)n(-c3cc(C)cc(OCCO)n3)n2C)c(F)c1 [Example 331, N-(5-(2,6-Difluoro-4-methoxyphenyl)-2-(6-(2-hydroxyethoxy)-4-methylpyridin-2-yl)-1-methyl-3-oxo-2,3-dihydro-1H-pyrazol-4-yl)-4-(difluoromethoxy)benzamide]",3 nM,> 10000 nM
"COc1cc(OCCO)nc(-n2c(=O)c(NC(=O)c3ccc(OC(F)F)cc3)c(-c3c(F)cc(OC)cc3F)n2C)c1 [Example 332, N-(5-(2,6-Difluoro-4-methoxyphenyl)-2-(6-(2-hydroxyethoxy)-4-methoxypyridin-2-yl)-1-methyl-3-oxo-2,3-dihydro-1H-pyrazol-4-yl)-4-(difluoromethoxy)benzamide]",3 nM,> 10000 nM
"COc1cc(F)c(-c2c(NC(=O)c3ccc(OC(F)F)cc3)c(=O)n(-c3cccc(OCCO)n3)n2C)c(F)c1 [Example 333, N-(5-(2,6-Difluoro-4-methoxyphenyl)-2-(6-(2-hydroxyethoxy)pyridin-2-yl)-1-methyl-3-oxo-2,3-dihydro-1H-pyrazol-4-yl)-4-(difluoromethoxy)benzamide]",14 nM,1300 nM
"COc1cc(OCCS(C)(=O)=O)nc(-n2c(=O)c(NC(=O)c3ccc(OC(F)F)cc3)c(-c3c(F)cc(OC)cc3F)n2C)c1 [Example 335, N-(5-(2,6-Difluoro-4-methoxyphenyl)-2-(4-methoxy-6-(2-(methylsulfonyl)ethoxy)pyridin-2-yl)-1-methyl-3-oxo-2,3-dihydro-1H-pyrazol-4-yl)-4-(difluoromethoxy)benzamide]",3 nM,> 10000 nM
"COc1cc(F)c(-c2c(NC(=O)c3ccc(OC(F)F)cc3)c(=O)n(-c3cc(CO)cc(OCCO)n3)n2C)c(F)c1 [Example 336, N-(5-(2,6-Difluoro-4-methoxyphenyl)-2-(6-(2-hydroxyethoxy)-4-(hydroxymethyl)pyridin-2-yl)-1-methyl-3-oxo-2,3-dihydro-1H-pyrazol-4-yl)-4-(difluoromethoxy)benzamide]",24 nM,> 10000 nM
"COc1cc(OCC2CCS(=O)(=O)CC2)nc(-n2c(=O)c(NC(=O)c3ccc(OC(F)F)cc3)c(-c3c(F)cc(OC)cc3F)n2C)c1 [Example 337, N-(5-(2,6-Difluoro-4-methoxyphenyl)-2-(6-((1,1-dioxidotetrahydro-2H-thiopyran-4-yl)methoxy)-4-methoxypyridin-2-yl)-1-methyl-3-oxo-2,3-dihydro-1H-pyrazol-4-yl)-4-(difluoromethoxy)benzamide]",15 nM,> 10000 nM
"COc1cc(C2CCCN(CCO)C2)nc(-n2c(=O)c(NC(=O)c3ccc(OC(F)F)cc3)c(-c3c(F)cc(OC)cc3F)n2C)c1 (stereo not drawn) [Example 338, N-(5-(2,6-Difluoro-4-methoxyphenyl)-2-(6-(1-(2-hydroxyethyl)piperidin-3-yl)-4-methoxypyridin-2-yl)-1-methyl-3-oxo-2,3-dihydro-1H-pyrazol-4-yl)-4-(difluoromethoxy)benzamide]",2 nM,> 10000 nM
